The text below walks through data of patent US20230131899A1, “INHIBITORS OF MICROBIALLY INDUCED AMYLOID” (Axial Therapeutics, Inc., priority 2020, published 2023).

For the assay, the target named is T1, E. coli CsgA (Escherichia coli, UniProt P28307).
T1 construct: made in house; host or cells: E. coli NEB 3016 slyD::kan, pET11d
Put plainly: In vitro ThioflavinT assay of CsgA aggregation (CsgA ThT Assay). In kind it is biochemical. The following applies: for remaining activity at 25 µM: compound 25 μM; for remaining activity at 100 µM: compound 100 μM. The procedure, abridged: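 Purified C-terminal His-tagged CsgA, monomerised by desalting and 30-kDa filtration, at 2-20 μM with 20-40 μM ThT in 50 mM potassium phosphate pH 7.3, 1% DMSO, compounds 3.125-200 uM; room temperature, fluorescence (ex 438/em 495 nm) read every 15 min. Background-subtracted signal expressed as percent inhibition versus vehicle at 6-6.5 or 8-9 h, or as percent control AUC.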

[1] abbreviates: read-out: CsgA ThT Assay (10 μM CsgA) % Control AUC at 1005 minutes, 25 μM (activity range), CsgA 10 μM, black plates, 1005 minutes, class symbol.
[2] abbreviates: read-out: CsgA ThT Assay (10 μM CsgA) % Control AUC at 1005 minutes, 25 μM, mean AUC as % of DMSO control, CsgA 10 μM, black plates, 1005 minutes.
Where [3] appears, read: read-out: CsgA ThT Assay (10 μM CsgA) % Control AUC at 1005 minutes, 100 μM (activity range), CsgA 10 μM, black plates, 1005 minutes, class symbol.
[4] abbreviates: read-out: CsgA ThT Assay (10 μM CsgA) % Control AUC at 1005 minutes, 100 μM, mean AUC as % of DMSO control, CsgA 10 μM, black plates, 1005 minutes.
Setting [5] is: read-out: CsgA ThT Assay (2 μM CsgA) % Control Bmax 25 μM, activity range, class symbol, CsgA 2 μM, white plates.
[6] abbreviates: read-out: CsgA ThT Assay (2 μM CsgA) % Control Bmax 25 μM, mean Bmax as percentage of DMSO control, CsgA 2 μM, white plates.
Where [7] appears, read: read-out: CsgA ThT Assay (2 μM CsgA) % Control Bmax 100 μM, activity range, class symbol, CsgA 2 μM, white plates.
Setting [8] is: read-out: CsgA ThT Assay (2 μM CsgA) % Control Bmax 100 μM, mean Bmax as percentage of DMSO control, CsgA 2 μM, white plates.

Molecules are shown by their SMILES. Where two headings read alike, the source gives them in different places. Some results are limits rather than exact numbers.

T1 sequence (P28307 23-151): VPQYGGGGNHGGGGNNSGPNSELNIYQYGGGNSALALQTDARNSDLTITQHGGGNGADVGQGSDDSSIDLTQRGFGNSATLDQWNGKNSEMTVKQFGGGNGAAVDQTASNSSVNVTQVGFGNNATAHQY

For `O=C(O)C1CN(C[C@H](O)CO)S(=O)(=O)c2c(-c3cccc(C(F)(F)F)c3)c(Cc3cccc4ccccc34)cc(=O)n21` (stereo partly drawn) [Compound 065a, 2-((S)-2,3-dihydroxypropyl)-8-(naphthalen-1-ylmethyl)-6-oxo-9-(3-(trifluoromethyl)phenyl)-3,4-dihydro-2H,6H-pyrido[1,2-e][1,2,5]thiadiazine-4-carboxylic acid 1,1-dioxide], the remaining activity at 25 µM reads like this: under setting [1], > 60%; under setting [2], 65%. The remaining activity at 100 µM under setting [3] is 11 to 31% and the remaining activity at 100 µM under setting [4] was 18%.
As for `Cc1c(Cc2cccc3ccccc23)c(-c2cccc(C(F)(F)F)c2)c2n(c1=O)C(C(=O)O)CN(C)S2(=O)=O` (stereo not drawn) [Compound 068, 2,7-dimethyl-8-(naphthalen-1-ylmethyl)-6-oxo-9-(3-(trifluoromethyl)phenyl)-3,4-dihydro-2H,6H-pyrido[1,2-e][1,2,5]thiadiazine-4-carboxylic acid 1,1-dioxide], the remaining activity at 25 µM by setting is: under setting [1], 31 to 60%; under setting [2], 43%. Further, the remaining activity at 100 µM by setting is: under setting [3], 11 to 31%; under setting [4], 23%.
For `CN1CC(C(=O)O)n2c(c(-c3cccc(C(F)(F)F)c3)c(Cc3cccc4ccccc34)c(NCc3ccccc3)c2=O)S1(=O)=O` (stereo not drawn) [Compound 071], in that order: 11 to 31%, 25%, > 60% and 78%.
As for `O=C(O)C1CSc2c(-c3cccc(C(F)(F)F)c3)c(C(F)(F)c3cccc4ccccc34)cc(=O)n21` (stereo not drawn) [Compound 073, 7-(difluoro(naphthalen-1-yl)methyl)-5-oxo-8-(3-(trifluoromethyl)phenyl)-2,3-dihydro-5H-thiazolo[3,2-a]pyridine-3-carboxylic acid], the remaining activity at 25 µM is 11 to 31% under setting [1] and 27% under setting [2]. Further, the remaining activity at 100 µM runs as follows: under setting [3], > 60%; under setting [4], 97%.
On to `CCCN1CC(C(=O)O)n2c(c(-c3cccc(C(F)(F)F)c3)c(C(F)(F)c3cccc4ccccc34)cc2=O)S1(=O)=O` (stereo not drawn) [Compound 138, 8-(difluoro(naphthalen-1-yl)methyl)-6-oxo-2-propyl-9-(3-(trifluoromethyl)phenyl)-3,4-dihydro-2H,6H-pyrido[1,2-e][1,2,5]thiadiazine-4-carboxylic acid 1,1-dioxide], for which the remaining activity at 25 µM is > 60% under setting [5] and 73% under setting [6]. The remaining activity at 100 µM under setting [7] was in the range of 31 to 60% and the remaining activity at 100 µM under setting [8] was 43%.
On the same counts, the results for `CCc1c(Cc2cccc3ccccc23)c(-c2cccc(C(F)(F)F)c2)c2n(c1=O)C(C(=O)O)CN2Cc1ccccc1` (stereo not drawn) [Compound 140, 1-benzyl-6-ethyl-7-(naphthalen-1-ylmethyl)-5-oxo-8-(3-(trifluoromethyl)phenyl)-1,2,3,5-tetrahydroimidazo[1,2-a]pyridine-3-carboxylic acid] are 31 to 60%, 35%, 11 to 31% and 19%.
Regarding `CCCN1CC(C(=O)O)n2c(c(-c3cccc(C(F)(F)F)c3)c(Cc3cccc4ccccc34)c(O)c2=O)S1(=O)=O` (stereo not drawn) [Compound 141, 7-hydroxy-8-(naphthalen-1-ylmethyl)-6-oxo-2-propyl-9-(3-(trifluoromethyl)phenyl)-3,4-dihydro-2H,6H-pyrido[1,2-e][1,2,5]thiadiazine-4-carboxylic acid 1,1-dioxide], the remaining activity at 25 µM by setting is: under setting [5], > 60%; under setting [6], 80%. Besides, the remaining activity at 100 µM under setting [7] was > 60% and the remaining activity at 100 µM under setting [8] turned out to be 94%.
As for `CCCN1CC(C(=O)O)n2c(c(-c3cccc(C(F)(F)F)c3)c(Cc3cccc4ccccc34)c(Cl)c2=O)S1(=O)=O` (stereo not drawn) [Compound 142, 7-chloro-8-(naphthalen-1-ylmethyl)-6-oxo-2-propyl-9-(3-(trifluoromethyl)phenyl)-3,4-dihydro-2H,6H-pyrido[1,2-e][1,2,5]thiadiazine-4-carboxylic acid 1,1-dioxide], the remaining activity at 25 µM reads like this: under setting [5], > 60%; under setting [6], 87%. For the same molecule, the remaining activity at 100 µM was > 60% under setting [7] and 121% under setting [8].
Turning to `CCCN1CC(C(=O)O)n2c(c(-c3cccc(C(F)(F)F)c3)c(Cc3cccc4ccccc34)c(OCC)c2=O)S1(=O)=O` (stereo not drawn) [Compound 143, 7-ethoxy-8-(naphthalen-1-ylmethyl)-6-oxo-2-propyl-9-(3-(trifluoromethyl)phenyl)-3,4-dihydro-2H,6H-pyrido[1,2-e][1,2,5]thiadiazine-4-carboxylic acid 1,1-dioxide], the remaining activity at 25 µM under setting [5] is > 60% and the remaining activity at 25 µM under setting [6] amounted to 87%. Also, the remaining activity at 100 µM is, setting by setting: under setting [7], > 60%; under setting [8], 88%.
With `CCCN1CC(C(=O)O)n2c(c(-c3cccc(C(F)(F)F)c3)c(Cc3cccc4ccccc34)c(NC(=O)C(C)C)c2=O)S1(=O)=O` (stereo not drawn) [Compound 152, 7-isobutyramido-8-(naphthalen-1-ylmethyl)-6-oxo-2-propyl-9-(3-(trifluoromethyl)phenyl)-3,4-dihydro-2H,6H-pyrido[1,2-e][1,2,5]thiadiazine-4-carboxylic acid 1,1-dioxide], the remaining activity at 25 µM by setting is: under setting [5], > 60%; under setting [6], 90%. The remaining activity at 100 µM was > 60% under setting [7] and 107% under setting [8].
With `CCCN1CC(C(=O)O)n2c(c(-c3cccc(C(F)(F)F)c3)c(Cc3cccc4ccccc34)c(NC(=O)CC)c2=O)S1(=O)=O` (stereo not drawn) [Compound 153, 8-(naphthalen-1-ylmethyl)-6-oxo-7-propionamido-2-propyl-9-(3-(trifluoromethyl)phenyl)-3,4-dihydro-2H,6H-pyrido[1,2-e][1,2,5]thiadiazine-4-carboxylic acid 1,1-dioxide], the remaining activity at 25 µM reads like this: under setting [5], > 60%; under setting [6], 91%. Besides, the remaining activity at 100 µM is > 60% under setting [7] and 83% under setting [8].
Turning to `CCCNC(=O)c1c(Cc2cccc3ccccc23)c(-c2cccc(C(F)(F)F)c2)c2n(c1=O)C(C(=O)O)CN(C)S2(=O)=O` (stereo not drawn) [Compound 154, 2-methyl-8-(naphthalen-1-ylmethyl)-6-oxo-7-(propylcarbamoyl)-9-(3-(trifluoromethyl)phenyl)-3,4-dihydro-2H,6H-pyrido[1,2-e][1,2,5]thiadiazine-4-carboxylic acid 1,1-dioxide], the remaining activity at 25 µM under setting [5] was > 60% and the remaining activity at 25 µM under setting [6] was found to be 92%. In addition, the remaining activity at 100 µM by setting is: under setting [7], > 60%; under setting [8], 63%.
Regarding `O=C(O)C1CN(Cc2ccccc2)c2c(-c3cccc(C(F)(F)F)c3)c(C(F)(F)c3cccc4ccccc34)c(Br)c(=O)n21` (stereo not drawn) [Compound 155, 1-benzyl-6-bromo-7-(difluoro(naphthalen-1-yl)methyl)-5-oxo-8-(3-(trifluoromethyl)phenyl)-1,2,3,5-tetrahydroimidazo[1,2-a]pyridine-3-carboxylic acid], the remaining activity at 25 µM by setting is: under setting [5], 31 to 60%; under setting [6], 57%. In addition, the remaining activity at 100 µM runs as follows: under setting [7], > 60%; under setting [8], 112%.
Take `CCNC(=O)c1c(Cc2cccc3ccccc23)c(-c2cccc(C(F)(F)F)c2)c2n(c1=O)C(C(=O)O)CN(C)S2(=O)=O` (stereo not drawn) [Compound 156, 7-(ethylcarbamoyl)-2-methyl-8-(naphthalen-1-ylmethyl)-6-oxo-9-(3-(trifluoromethyl)phenyl)-3,4-dihydro-2H,6H-pyrido[1,2-e][1,2,5] thiadiazine-4-carboxylic acid 1,1-dioxide]: the remaining activity at 25 µM was > 60% under setting [5] and 80% under setting [6]. For the same molecule, the remaining activity at 100 µM is, setting by setting: under setting [7], > 60%; under setting [8], 90%.
For `CN1CC(C(=O)O)n2c(c(-c3cccc(C(F)(F)F)c3)c(Cc3cccc4ccccc34)c(C(=O)NC(C)(C)C)c2=O)S1(=O)=O` (stereo not drawn) [Compound 158, 7-(tert-butylcarbamoyl)-2-methyl-8-(naphthalen-1-ylmethyl)-6-oxo-9-(3-(trifluoromethyl)phenyl)-3,4-dihydro-2H,6H-pyrido[1,2-e][1,2,5]thiadiazine-4-carboxylic acid 1,1-dioxide], the remaining activity at 25 µM under setting [5] is > 60% and the remaining activity at 25 µM under setting [6] came out at 69%. Further, the remaining activity at 100 µM under setting [7] is > 60% and the remaining activity at 100 µM under setting [8] was determined as 72%.
